Test results as given in US20230391768A2, “IMIDAZOPYRIDINE DERIVATIVES AND AZA-IMIDAZOPYRIDINE DERIVATIVES AS JANUS KINASE 2 INHIBITORS AND USES THEREOF” (Dana-Farber Cancer Institute, Inc., priority 2018, published 2023).

Tests used:
Experiment in all cases: KINOMEscan
Type in all cases: binding
Conditions in all cases: read-out: percent of control
RIOK3 = RIOK3 (Homo sapiens (Human), UniProt O14730)
Protocol: (§1) In vitro profiling of Compound I-2 (1 μM) was performed using the DiscoveRx KINOMEscan® platform.

CHEK1 = CHEK1 (Homo sapiens (Human), UniProt O14757)
Chain of CHEK1 (O14757 whole entry): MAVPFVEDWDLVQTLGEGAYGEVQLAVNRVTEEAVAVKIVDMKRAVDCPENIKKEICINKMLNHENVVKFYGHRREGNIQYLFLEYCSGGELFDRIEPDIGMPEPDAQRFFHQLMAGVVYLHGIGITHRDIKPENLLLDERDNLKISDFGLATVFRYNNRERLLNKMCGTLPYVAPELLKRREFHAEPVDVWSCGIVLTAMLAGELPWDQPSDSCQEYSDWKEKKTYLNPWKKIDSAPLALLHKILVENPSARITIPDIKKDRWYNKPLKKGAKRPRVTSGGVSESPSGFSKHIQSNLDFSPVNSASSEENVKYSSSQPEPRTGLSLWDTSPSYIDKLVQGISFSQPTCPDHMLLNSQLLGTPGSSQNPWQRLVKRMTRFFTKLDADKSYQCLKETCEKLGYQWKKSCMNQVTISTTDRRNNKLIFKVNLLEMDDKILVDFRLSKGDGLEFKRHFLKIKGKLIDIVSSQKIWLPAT
Protocol: as §1

[1] = molecular target: ABL1(F317I)-nonphosphorylated (Homo sapiens (Human), UniProt P00519, F317I)
Protocol: as §1

ERK5 = ERK5 (Homo sapiens (Human), UniProt Q13164)
Protocol: as §1

PIK3C2G = PIK3C2G (Homo sapiens (Human), UniProt O75747)
Protocol: as §1

AKT3 = AKT3 (Homo sapiens (Human), UniProt Q9Y243)
Protocol: as §1

SGK2 = SGK2 (Homo sapiens (Human), UniProt Q9HBY8)
Chain of SGK2 (Q9HBY8 whole entry): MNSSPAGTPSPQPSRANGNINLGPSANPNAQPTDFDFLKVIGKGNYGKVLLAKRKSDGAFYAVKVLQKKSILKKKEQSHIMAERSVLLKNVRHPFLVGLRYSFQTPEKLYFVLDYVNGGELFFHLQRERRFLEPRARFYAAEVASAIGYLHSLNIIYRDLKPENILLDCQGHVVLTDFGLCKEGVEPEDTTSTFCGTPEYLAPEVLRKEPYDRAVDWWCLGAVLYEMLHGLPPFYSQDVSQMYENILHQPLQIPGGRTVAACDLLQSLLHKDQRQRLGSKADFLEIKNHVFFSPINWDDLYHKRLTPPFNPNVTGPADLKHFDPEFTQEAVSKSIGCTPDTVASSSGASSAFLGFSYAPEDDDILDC
Protocol: as §1

PRKD2 = PRKD2 (Homo sapiens (Human), UniProt Q9BZL6)
Protocol: as §1

PRKCD = PRKCD (Homo sapiens (Human), UniProt Q05655)
Protocol: as §1

PIK3CA(E542K) = PIK3CA(E542K) (Homo sapiens (Human), UniProt P42336, E542K)
Chain of PIK3CA(E542K) (P42336 whole entry E542K): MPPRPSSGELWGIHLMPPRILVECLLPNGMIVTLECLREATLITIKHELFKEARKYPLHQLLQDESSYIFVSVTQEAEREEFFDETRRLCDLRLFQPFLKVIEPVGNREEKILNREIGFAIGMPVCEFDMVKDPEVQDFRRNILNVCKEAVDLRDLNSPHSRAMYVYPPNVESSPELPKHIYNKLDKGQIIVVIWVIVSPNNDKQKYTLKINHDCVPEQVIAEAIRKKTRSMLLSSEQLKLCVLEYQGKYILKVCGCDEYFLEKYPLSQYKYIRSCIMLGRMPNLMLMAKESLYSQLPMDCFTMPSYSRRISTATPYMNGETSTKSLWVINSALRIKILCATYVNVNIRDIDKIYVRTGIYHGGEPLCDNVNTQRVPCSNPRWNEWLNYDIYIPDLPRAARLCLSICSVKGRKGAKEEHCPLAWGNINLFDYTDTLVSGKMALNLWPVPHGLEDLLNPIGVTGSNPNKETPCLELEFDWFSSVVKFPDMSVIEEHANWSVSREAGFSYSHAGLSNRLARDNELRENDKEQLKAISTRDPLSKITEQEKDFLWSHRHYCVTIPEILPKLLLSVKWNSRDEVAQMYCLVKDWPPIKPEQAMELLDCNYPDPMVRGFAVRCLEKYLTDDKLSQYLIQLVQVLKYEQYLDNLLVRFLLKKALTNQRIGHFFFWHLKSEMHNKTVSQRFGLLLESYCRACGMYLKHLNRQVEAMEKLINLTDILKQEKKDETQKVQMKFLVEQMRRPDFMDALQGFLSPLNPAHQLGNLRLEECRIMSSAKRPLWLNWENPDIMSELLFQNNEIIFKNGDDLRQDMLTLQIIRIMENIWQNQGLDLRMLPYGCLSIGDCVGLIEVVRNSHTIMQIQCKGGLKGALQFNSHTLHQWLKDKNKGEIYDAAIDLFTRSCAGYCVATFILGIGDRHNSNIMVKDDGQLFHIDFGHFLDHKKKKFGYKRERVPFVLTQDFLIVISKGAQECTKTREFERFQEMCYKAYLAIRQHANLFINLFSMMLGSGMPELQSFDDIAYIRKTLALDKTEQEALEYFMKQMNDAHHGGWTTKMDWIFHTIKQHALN
Protocol: as §1

[2] = molecular target: ABL1(T315I)-nonphosphorylated (Homo sapiens (Human), UniProt P00519, T315I)
Protocol: as §1

NEK11 = NEK11 (Homo sapiens (Human), UniProt Q8NG66)
Chain of NEK11 (Q8NG66 whole entry): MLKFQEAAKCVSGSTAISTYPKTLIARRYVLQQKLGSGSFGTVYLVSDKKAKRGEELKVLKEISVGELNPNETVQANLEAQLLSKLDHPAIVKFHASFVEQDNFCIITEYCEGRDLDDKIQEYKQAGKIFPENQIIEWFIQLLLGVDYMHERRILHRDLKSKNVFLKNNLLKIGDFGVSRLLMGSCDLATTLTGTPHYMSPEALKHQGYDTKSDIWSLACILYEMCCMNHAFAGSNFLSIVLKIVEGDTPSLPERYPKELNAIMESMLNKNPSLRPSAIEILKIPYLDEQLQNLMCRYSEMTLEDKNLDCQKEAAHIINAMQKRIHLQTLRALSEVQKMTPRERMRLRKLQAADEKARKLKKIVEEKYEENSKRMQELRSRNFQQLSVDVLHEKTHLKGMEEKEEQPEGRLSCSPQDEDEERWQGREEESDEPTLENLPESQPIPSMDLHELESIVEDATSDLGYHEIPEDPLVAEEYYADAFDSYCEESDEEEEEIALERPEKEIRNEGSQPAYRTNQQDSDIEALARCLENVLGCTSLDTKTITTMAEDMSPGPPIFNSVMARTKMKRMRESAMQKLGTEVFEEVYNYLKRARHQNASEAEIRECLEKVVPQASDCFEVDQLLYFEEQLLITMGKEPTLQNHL
Protocol: as §1

PCTK1 = PCTK1 (Homo sapiens (Human), UniProt Q00536)
Protocol: as §1

EPHA8 = EPHA8 (Homo sapiens (Human), UniProt P29322)
Chain of EPHA8 (P29322 28-1005): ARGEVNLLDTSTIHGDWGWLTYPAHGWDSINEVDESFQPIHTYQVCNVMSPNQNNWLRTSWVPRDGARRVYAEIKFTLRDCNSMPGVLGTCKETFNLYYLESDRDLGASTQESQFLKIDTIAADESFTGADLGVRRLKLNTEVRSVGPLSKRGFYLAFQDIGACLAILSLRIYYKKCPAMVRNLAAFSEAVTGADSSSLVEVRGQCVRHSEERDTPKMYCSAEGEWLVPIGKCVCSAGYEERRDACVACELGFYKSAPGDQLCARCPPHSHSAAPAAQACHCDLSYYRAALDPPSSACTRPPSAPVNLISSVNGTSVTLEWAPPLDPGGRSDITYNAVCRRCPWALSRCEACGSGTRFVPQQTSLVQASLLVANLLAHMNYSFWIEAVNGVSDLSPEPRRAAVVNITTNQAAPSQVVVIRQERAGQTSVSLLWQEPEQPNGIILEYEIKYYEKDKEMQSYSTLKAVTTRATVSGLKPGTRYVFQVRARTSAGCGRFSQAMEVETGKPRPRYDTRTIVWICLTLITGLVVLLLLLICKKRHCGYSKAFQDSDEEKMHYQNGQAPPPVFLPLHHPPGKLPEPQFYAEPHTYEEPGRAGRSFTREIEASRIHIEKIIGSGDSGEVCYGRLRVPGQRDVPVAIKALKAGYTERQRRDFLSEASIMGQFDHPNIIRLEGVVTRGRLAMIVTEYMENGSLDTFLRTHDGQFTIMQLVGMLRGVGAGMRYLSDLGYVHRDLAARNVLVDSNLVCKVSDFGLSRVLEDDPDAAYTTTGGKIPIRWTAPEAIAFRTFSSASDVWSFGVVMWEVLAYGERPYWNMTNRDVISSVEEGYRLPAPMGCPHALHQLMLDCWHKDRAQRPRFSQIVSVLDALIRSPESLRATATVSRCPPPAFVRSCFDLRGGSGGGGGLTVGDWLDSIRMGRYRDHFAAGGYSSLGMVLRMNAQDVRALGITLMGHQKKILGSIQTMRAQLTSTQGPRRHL
Protocol: as §1

FGFR3 (G697C) = FGFR3 (G697C) (Homo sapiens (Human), UniProt P22607, G697C)
Protocol: as §1

WNK4 = WNK4 (Homo sapiens (Human), UniProt Q96J92)
Protocol: as §1

KIT(V559D) = KIT(V559D) (Homo sapiens (Human), UniProt P10721, V559D)
Protocol: as §1

S6K1 = S6K1 (Homo sapiens (Human), UniProt P23443)
Protocol: as §1

[3] = molecular target: JAK1(JH2domainpseudokinase) (Homo sapiens (Human), UniProt P23458)
Protocol: as §1

VEGFR2 = VEGFR2 (Homo sapiens (Human), UniProt P35968)
Protocol: as §1

ERBB2 = ERBB2 (Homo sapiens (Human), UniProt P04626)
Protocol: as §1

CDK7 = CDK7 (Homo sapiens (Human), UniProt P50613)
Protocol: as §1

[4] = molecular target: RPS6KA5 (Kin.Dom.2-C-terminal) (Homo sapiens (Human), UniProt O75582)
Chain of RPS6KA5 (Kin.Dom.2-C-terminal) (O75582 426-687): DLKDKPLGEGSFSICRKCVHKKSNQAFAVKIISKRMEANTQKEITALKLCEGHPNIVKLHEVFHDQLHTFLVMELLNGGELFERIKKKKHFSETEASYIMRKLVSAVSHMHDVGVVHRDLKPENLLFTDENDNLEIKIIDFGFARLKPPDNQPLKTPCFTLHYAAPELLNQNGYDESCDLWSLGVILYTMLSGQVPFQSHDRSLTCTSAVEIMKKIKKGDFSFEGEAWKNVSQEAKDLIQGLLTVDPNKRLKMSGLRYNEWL
Protocol: as §1

ROCK1 = ROCK1 (Homo sapiens (Human), UniProt Q13464)
Protocol: as §1

NEK9 = NEK9 (Homo sapiens (Human), UniProt Q8TD19)
Protocol: as §1

TSSK1B = TSSK1B (Homo sapiens (Human), UniProt Q9BXA7)
Chain of TSSK1B (Q9BXA7 whole entry): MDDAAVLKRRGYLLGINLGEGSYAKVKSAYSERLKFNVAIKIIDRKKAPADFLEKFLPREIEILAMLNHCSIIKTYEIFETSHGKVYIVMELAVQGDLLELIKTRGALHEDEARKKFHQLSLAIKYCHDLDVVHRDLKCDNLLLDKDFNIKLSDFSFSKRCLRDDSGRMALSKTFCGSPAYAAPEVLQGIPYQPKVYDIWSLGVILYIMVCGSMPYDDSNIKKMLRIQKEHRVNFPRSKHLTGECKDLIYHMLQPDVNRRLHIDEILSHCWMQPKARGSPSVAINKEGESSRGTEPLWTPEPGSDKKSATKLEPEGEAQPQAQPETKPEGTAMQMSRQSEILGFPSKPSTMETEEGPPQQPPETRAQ
Protocol: as §1

TNNI3K = TNNI3K (Homo sapiens (Human), UniProt Q59H18)
Protocol: as §1

[5] = molecular target: ABL1(E255K)-phosphorylated (Homo sapiens (Human), UniProt P00519, E255K)
Protocol: as §1

DRAK2 = DRAK2 (Homo sapiens (Human), UniProt O94768)
Protocol: as §1

PHKG1 = PHKG1 (Homo sapiens (Human), UniProt Q16816)
Protocol: as §1

MAP4K4 = MAP4K4 (Homo sapiens (Human), UniProt O95819)
Protocol: as §1

FLT3 (D835H) = FLT3 (D835H) (Homo sapiens (Human), UniProt P36888, D835H)
Protocol: as §1

TNIK = TNIK (Homo sapiens (Human), UniProt Q9UKE5)
Protocol: as §1

FGFR3 = FGFR3 (Homo sapiens (Human), UniProt P22607)
Protocol: as §1

p38-gamma = p38-gamma (Homo sapiens (Human), UniProt P53778)
Chain of p38-gamma (P53778 whole entry): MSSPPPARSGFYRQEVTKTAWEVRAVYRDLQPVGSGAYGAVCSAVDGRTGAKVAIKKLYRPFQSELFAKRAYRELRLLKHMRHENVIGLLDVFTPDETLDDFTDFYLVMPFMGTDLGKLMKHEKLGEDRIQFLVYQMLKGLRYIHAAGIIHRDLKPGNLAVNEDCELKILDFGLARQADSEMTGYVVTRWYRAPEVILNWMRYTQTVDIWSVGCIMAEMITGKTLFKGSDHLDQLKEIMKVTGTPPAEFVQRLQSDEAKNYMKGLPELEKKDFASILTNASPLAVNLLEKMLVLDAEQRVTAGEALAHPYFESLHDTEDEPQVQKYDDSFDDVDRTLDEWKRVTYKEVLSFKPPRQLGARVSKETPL
Protocol: as §1

CDK8 = CDK8 (Homo sapiens (Human), UniProt P49336)
Chain of CDK8 (P49336 whole entry): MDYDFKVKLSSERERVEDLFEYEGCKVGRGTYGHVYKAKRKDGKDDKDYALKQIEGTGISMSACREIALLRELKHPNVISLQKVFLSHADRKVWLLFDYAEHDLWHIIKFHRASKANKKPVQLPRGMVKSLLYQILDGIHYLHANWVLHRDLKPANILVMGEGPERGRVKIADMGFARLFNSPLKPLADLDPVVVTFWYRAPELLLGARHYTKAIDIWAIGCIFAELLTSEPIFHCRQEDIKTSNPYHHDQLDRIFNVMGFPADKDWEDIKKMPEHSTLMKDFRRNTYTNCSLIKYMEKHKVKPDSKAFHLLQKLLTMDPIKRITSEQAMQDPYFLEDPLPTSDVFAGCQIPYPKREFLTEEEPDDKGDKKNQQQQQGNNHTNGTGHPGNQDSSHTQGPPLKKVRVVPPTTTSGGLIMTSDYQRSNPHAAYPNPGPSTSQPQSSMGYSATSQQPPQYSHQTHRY
Protocol: as §1

AKT1 = AKT1 (Homo sapiens (Human), UniProt P31749)
Protocol: as §1

MLK2 = MLK2 (Homo sapiens (Human), UniProt Q02779)
Protocol: as §1

Compound	remaining binding at 1 µM (RIOK3) [%]	remaining binding at 1 µM (CHEK1) [%]	remaining binding at 1 µM [1] [%]	remaining binding at 1 µM (ERK5) [%]	remaining binding at 1 µM (PIK3C2G) [%]	remaining binding at 1 µM (AKT3) [%]	remaining binding at 1 µM (SGK2) [%]	remaining binding at 1 µM (PRKD2) [%]	remaining binding at 1 µM (PRKCD) [%]	remaining binding at 1 µM (PIK3CA(E542K)) [%]	remaining binding at 1 µM [2] [%]	remaining binding at 1 µM (NEK11) [%]	remaining binding at 1 µM (PCTK1) [%]	remaining binding at 1 µM (EPHA8) [%]	remaining binding at 1 µM (FGFR3 (G697C)) [%]	remaining binding at 1 µM (WNK4) [%]	remaining binding at 1 µM (KIT(V559D)) [%]	remaining binding at 1 µM (S6K1) [%]	remaining binding at 1 µM [3] [%]	remaining binding at 1 µM (VEGFR2) [%]	also measured
CCN1CCN(Cc2cc(NC(=O)c3ccc(C)c(-c4ccc5nc(NC(=O)C6CC6)cn5n4)c3)cc(C(F)(F)F)c2)CC1 [Compound I-2, 3-(2-(cyclopropanecarboxamido)imidazo[1,2-b]pyridazin-6-yl)-N-(3-((4-ethylpiperazin-1-yl)methyl)-5-(trifluoromethyl)phenyl)-4-methylbenzamide]	100	100	0	95	92	8	87	97	40	96	0	65	16	0	87	75	0	52	100	1.4	remaining binding at 1 µM (ERBB2): 82%; remaining binding at 1 µM (CDK7): 0.55%; remaining binding at 1 µM [4]: 100%; remaining binding at 1 µM (ROCK1): 86%; remaining binding at 1 µM (NEK9): 100%; remaining binding at 1 µM (TSSK1B): 96%; remaining binding at 1 µM (TNNI3K): 56%; remaining binding at 1 µM [5]: 0.5%; remaining binding at 1 µM (DRAK2): 89%; remaining binding at 1 µM (PHKG1): 99%; remaining binding at 1 µM (MAP4K4): 0.15%; remaining binding at 1 µM (FLT3 (D835H)): 2.2%; remaining binding at 1 µM (TNIK): 16%; remaining binding at 1 µM (FGFR3): 86%; remaining binding at 1 µM (p38-gamma): 0%; remaining binding at 1 µM (CDK8): 4.8%; remaining binding at 1 µM (AKT1): 90%; remaining binding at 1 µM (MLK2): 72%
CCN1CCN(Cc2cc(NC(=O)c3ccc(C)c(-c4ccc5nc(NC(=O)C6CC6)cn5c4)c3)cc(C(F)(F)F)c2)CC1 [Compound I-6, 3-(2-(cyclopropanecarboxamido)imidazo[1,2-a]pyridin-6-yl)-N-(3-((4-ethylpiperazin-1-yl)methyl)-5-(trifluoromethyl)phenyl)-4-methylbenzamide]	90	100	0	92	95	94	76	100	48	100	0	89	28	0	69	100	0.05	49	72	2	remaining binding at 1 µM (ERBB2): 71%; remaining binding at 1 µM (CDK7): 1%; remaining binding at 1 µM [4]: 98%; remaining binding at 1 µM (ROCK1): 100%; remaining binding at 1 µM (NEK9): 92%; remaining binding at 1 µM (TSSK1B): 76%; remaining binding at 1 µM (TNNI3K): 36%; remaining binding at 1 µM [5]: 0.65%; remaining binding at 1 µM (DRAK2): 98%; remaining binding at 1 µM (PHKG1): 93%; remaining binding at 1 µM (MAP4K4): 0.75%; remaining binding at 1 µM (FLT3 (D835H)): 2%; remaining binding at 1 µM (TNIK): 14%; remaining binding at 1 µM (FGFR3): 89%; remaining binding at 1 µM (p38-gamma): 9.4%; remaining binding at 1 µM (CDK8): 3%; remaining binding at 1 µM (AKT1): 90%; remaining binding at 1 µM (MLK2): 62%
